Results reported in patent publication US10316049B2, “Tank-binding kinase inhibitor compounds” (Gilead Sciences, Inc., priority 2015, dated 2019).

Legend:
TBK1 = biological target: T1, TBK1 (Homo sapiens, UniProt Q9UHD2); experiment: TR-FRET enzymatic activity assay, TBK1; format: biochemical; also: full length recombinant TBK1 at 2.5 nM
T1 construct: TBK1 and IKKε were expressed and purified as full length recombinant proteins; made in house
T1 sequence (Q9UHD2 1-729): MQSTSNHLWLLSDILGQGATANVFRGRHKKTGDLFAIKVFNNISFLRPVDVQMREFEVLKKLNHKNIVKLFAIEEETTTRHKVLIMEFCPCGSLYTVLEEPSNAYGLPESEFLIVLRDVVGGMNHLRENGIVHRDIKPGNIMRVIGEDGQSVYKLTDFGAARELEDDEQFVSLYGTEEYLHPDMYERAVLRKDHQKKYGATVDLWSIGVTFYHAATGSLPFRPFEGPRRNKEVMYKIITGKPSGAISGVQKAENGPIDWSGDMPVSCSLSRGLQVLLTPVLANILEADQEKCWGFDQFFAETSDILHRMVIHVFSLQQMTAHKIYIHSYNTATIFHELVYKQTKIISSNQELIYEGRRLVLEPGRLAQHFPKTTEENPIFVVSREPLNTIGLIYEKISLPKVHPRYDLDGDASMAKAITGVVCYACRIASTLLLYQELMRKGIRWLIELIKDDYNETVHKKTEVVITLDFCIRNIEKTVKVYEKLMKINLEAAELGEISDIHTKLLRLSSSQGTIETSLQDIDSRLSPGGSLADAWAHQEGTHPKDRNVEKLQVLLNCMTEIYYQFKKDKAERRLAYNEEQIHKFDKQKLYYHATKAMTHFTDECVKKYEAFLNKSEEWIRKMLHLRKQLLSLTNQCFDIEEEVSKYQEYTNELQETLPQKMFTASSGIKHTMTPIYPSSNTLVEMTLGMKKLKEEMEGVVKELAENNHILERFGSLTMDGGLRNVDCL
Description: (§1) Biological Assay for TBK1 and IKKε:
(§2) Enzymatic activity of IKKε and TBK1 was measured using a homogeneous time resolved fluorescence resonance energy transfer (TR-FRET) assay that monitors enzyme dependent phosphorylation of a biotinylated serine/threonine peptide substrate. An increase in the amount of phosphorylated peptide results in an increase in TR-FRET signal. TBK1 and IKKε were expressed and purified as full length recombinant proteins. Detection reagents for the assay were purchased from Cisbio. […] After an assay reaction time of 240 minutes at 25° C., reactions were terminated with EDTA.
(§3) Amount of phosphorylated peptide was determined by the addition of 125 nM streptavidin XL665 and europium cryptate labeled anti-phospho monoclonal antibody and the resulting TR-FRET signal was recorded on an Envision plate reader (Ex: 340 nm; Em: 615/665 nm; 100 μs delay and 200 μs read window). Data was normalized based on a positive (1 μM Staurosporine) and negative (DMSO) controls and IC50 values calculated from the fit of the dose-response curves to a four-parameter equation. All IC50 values represent geometric mean values of a minimum of four determinations. These assays generally produced results within 3-fold of the reported mean.

IKKε = biological target: T2, IKKε (Homo sapiens, UniProt Q14164); experiment: TR-FRET enzymatic activity assay, IKKε; format: biochemical; details: read-out: IKKϵ IC50; also: full length recombinant IKKε at 0.3 nM
T2 construct: TBK1 and IKKε were expressed and purified as full length recombinant proteins; made in house
T2 sequence (Q14164 1-716): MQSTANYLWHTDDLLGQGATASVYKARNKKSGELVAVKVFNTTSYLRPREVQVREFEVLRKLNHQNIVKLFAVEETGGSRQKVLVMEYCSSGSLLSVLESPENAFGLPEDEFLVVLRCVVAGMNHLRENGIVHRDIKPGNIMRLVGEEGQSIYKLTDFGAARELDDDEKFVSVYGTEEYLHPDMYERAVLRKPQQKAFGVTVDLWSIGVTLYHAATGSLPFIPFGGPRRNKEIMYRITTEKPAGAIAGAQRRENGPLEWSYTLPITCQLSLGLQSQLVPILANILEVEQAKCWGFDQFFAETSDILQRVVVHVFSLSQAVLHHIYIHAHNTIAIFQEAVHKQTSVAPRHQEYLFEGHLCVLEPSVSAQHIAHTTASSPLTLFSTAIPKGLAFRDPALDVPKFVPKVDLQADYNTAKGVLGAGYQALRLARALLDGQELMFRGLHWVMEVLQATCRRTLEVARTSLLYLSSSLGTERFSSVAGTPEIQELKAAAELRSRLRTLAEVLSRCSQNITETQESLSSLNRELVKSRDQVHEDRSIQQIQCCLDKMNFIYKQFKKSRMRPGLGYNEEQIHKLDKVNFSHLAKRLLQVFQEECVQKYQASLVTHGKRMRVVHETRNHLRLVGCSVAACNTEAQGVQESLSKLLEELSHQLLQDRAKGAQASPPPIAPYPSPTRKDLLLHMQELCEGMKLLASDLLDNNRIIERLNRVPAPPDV
Description: as §1
as §2, with “An increase in the amount of phosphorylated peptide results in an increase in TR-FRET signal.” left out
as §3, with “determinations.” for “determinations. These assays generally produced results within 3-fold of the reported mean.”

## N#Cc1cc(-c2ccnc(NC(=O)C3CC3)c2)ccc1OC1CCOCC1 [Example 2, N-(4-(3-cyano-4-((tetrahydro-2H-pyran-4-yl)oxy)phenyl)pyridin-2-yl)cyclopropanecarboxamide]
TBK1
  IC50: 28.1 nM
IKKε
  IC50: 115 nM

## N#Cc1cc(-c2ccnc(NC(=O)C3CCC3)c2)ccc1OC1CCOCC1 [Example 3, N-(4-(3-cyano-4-((tetrahydro-2H-pyran-4-yl)oxy)phenyl)pyridin-2-yl)cyclobutanecarboxamide]
TBK1
  IC50: 335 nM
IKKε
  IC50: 284 nM

## N#Cc1cc(-c2cc(NC(=O)C3CC3)ncc2F)ccc1OC1CCOCC1 [Example 4, N-(4-(3-cyano-4-((tetrahydro-2H-pyran-4-yl)oxy)phenyl)-5-fluoropyridin-2-yl)cyclopropanecarboxamide]
TBK1
  IC50: 43.6 nM
IKKε
  IC50: 327 nM

## N#Cc1cc(-c2ccnc(NC(=O)C3CC3)c2)ccc1N1CCCC1 [Example 5, N-(4-(3-cyano-4-(pyrrolidin-1-yl)phenyl)pyridin-2-yl)cyclopropanecarboxamide]
TBK1
  IC50: 13.9 nM
IKKε
  IC50: 68.2 nM

## N#Cc1cc(-c2cc(NC(=O)C3CC3)ncn2)ccc1OC1CCOCC1 [Example 6, N-(6-(3-cyano-4-((tetrahydro-2H-pyran-4-yl)oxy)phenyl)pyrimidin-4-yl)cyclopropanecarboxamide]
TBK1
  IC50: 48.5 nM
IKKε
  IC50: 298 nM

## COc1cc(-c2ccnc(NC(=O)C3CC3)c2)cc(C#N)c1OC1CCOCC1 [Example 7, N-(4-(3-cyano-5-methoxy-4-((tetrahydro-2H-pyran-4-yl)oxy)phenyl)pyridin-2-yl)cyclopropanecarboxamide]
TBK1
  IC50: 492 nM
IKKε
  IC50: > 1000 nM

## N#Cc1cc(-c2ccnc(NC(=O)C3CC3)c2)ccc1O[C@H]1CCN(C(=O)CO)C[C@H]1F [Example 8, N-(4-(3-cyano-4-(((3R,4S)-3-fluoro-1-(2-hydroxyacetyl)piperidin-4-yl)oxy)phenyl)pyridin-2-yl)cyclopropanecarboxamide]
TBK1
  IC50: 10.4 nM
IKKε
  IC50: 25.1 nM

## C[C@H](O)C(=O)N1CC[C@H](Oc2ccc(-c3ccnc(NC(=O)C4CC4)c3)cc2C#N)[C@H](F)C1 [Example 9, N-(4-(3-cyano-4-(((3R,4S)-3-fluoro-1-((S)-2-hydroxypropanoyl)piperidin-4-yl)oxy)phenyl)pyridin-2-yl)cyclopropanecarboxamide]
TBK1
  IC50: 15.2 nM
IKKε
  IC50: 46.4 nM

## N#Cc1cc(-c2ccnc(NC(=O)C3CC3)c2)ccc1O[C@H]1CCN(C(=O)CO)CC1(F)F [Example 10, (S)—N-(4-(3-cyano-4-((3,3-difluoro-1-(2-hydroxyacetyl)piperidin-4-yl)oxy)phenyl)pyridin-2-yl)cyclopropanecarboxamide]
TBK1
  IC50: 4.2 nM
IKKε
  IC50: 7.4 nM

## C[C@H](O)C(=O)N1CC[C@H](Oc2ccc(-c3ccnc(NC(=O)C4CC4)c3)cc2C#N)C(F)(F)C1 [Example 11, N-(4-(3-cyano-4-(((S)-3,3-difluoro-1-((S)-2 hydroxypropanoyl)piperidin-4-yl)oxy)phenyl)pyridin-2-yl)cyclopropanecarboxamide]
TBK1
  IC50: 10.2 nM
IKKε
  IC50: 26.3 nM

## N#CCC(=O)N1CC[C@H](Oc2ccc(-c3ccnc(NC(=O)C4CC4)c3)cc2C#N)[C@H](F)C1 [Example 12, N-(4-(3-cyano-4-(((3R,4S)-1-(2-cyanoacetyl)-3-fluoropiperidin-4-yl)oxy)phenyl)pyridin-2-yl)cyclopropanecarboxamide]
TBK1
  IC50: 37.3 nM
IKKε
  IC50: 121 nM

## N#CCC(=O)N1CC[C@H](Oc2ccc(-c3ccnc(NC(=O)C4CC4)c3)cc2C#N)C(F)(F)C1 [Example 13, (S)—N-(4-(3-cyano-4-((1-(2-cyanoacetyl)-3,3-difluoropiperidin-4-yl)oxy)phenyl)pyridin-2-yl)cyclopropanecarboxamide]
TBK1
  IC50: 12.4 nM
IKKε
  IC50: 44 nM

## N#Cc1cc(-c2ccnc(NC(=O)C3CC3)c2)ccc1O[C@H]1CCN(C(=O)[C@@H]2CCC(=O)N2)CC1(F)F [Example 14, N-(4-(3-cyano-4-(((S)-3,3-difluoro-1-((S)-5-oxopyrrolidine-2-carbonyl)piperidin-4-yl)oxy)phenyl)pyridin-2-yl)cyclopropanecarboxamide]
TBK1
  IC50: 5.5 nM
IKKε
  IC50: 18.5 nM

## N#Cc1cc(-c2ccnc(NC(=O)C3CC3)c2)ccc1O[C@H]1CCN(C(=O)CCO)CC1(F)F [Example 15, (S)—N-(4-(3-cyano-4-((3,3-difluoro-1-(3-hydroxypropanoyl)piperidin-4-yl)oxy)phenyl)pyridin-2-yl)cyclopropanecarboxamide]
TBK1
  IC50: 23.2 nM
IKKε
  IC50: 84.2 nM

## N#Cc1cc(-c2ccnc(NC(=O)C3CC3)c2)ccc1N1CC[C@H](O)C1 [Example 16, (S)—N-(4-(3-cyano-4-(3-hydroxypyrrolidin-1-yl)phenyl)pyridin-2-yl)cyclopropanecarboxamide]
TBK1
  IC50: 52.3 nM
IKKε
  IC50: 353 nM

## N#Cc1cc(-c2ccnc(NC(=O)C3CC3)c2)ccc1N1CC[C@@H](O)C1 [Example 17, (R)—N-(4-(3-cyano-4-(3-hydroxypyrrolidin-1-yl)phenyl)pyridin-2-yl)cyclopropanecarboxamide]
TBK1
  IC50: 41.6 nM
IKKε
  IC50: 232 nM

## N#Cc1cc(-c2ccnc(NC(=O)C3CC3)c2)ccc1N1CC[C@H](F)C1 [Example 18, (S)—N-(4-(3-cyano-4-(3-fluoropyrrolidin-1-yl)phenyl)pyridin-2-yl)cyclopropanecarboxamide]
TBK1
  IC50: 20.3 nM
IKKε
  IC50: 61.3 nM

## N#Cc1cc(-c2cc(NC(=O)C3CC3)ncn2)ccc1O[C@H]1CCN(C(=O)CO)C[C@H]1F [Example 19, N-(6-(3-cyano-4-(((3R,4S)-3-fluoro-1-(2-hydroxyacetyl)piperidin-4-yl)oxy)phenyl)pyrimidin-4-yl)cyclopropanecarboxamide]
TBK1
  IC50: 15.6 nM
IKKε
  IC50: 53.1 nM

## N#Cc1cc(-c2cc(NC(=O)C3CC3)ncn2)ccc1O[C@H]1CCN(C(=O)CO)CC1(F)F [Example 20, (S)—N-(6-(3-cyano-4-((3,3-difluoro-1-(2-hydroxyacetyl)piperidin-4-yl)oxy)phenyl)pyrimidin-4-yl)cyclopropanecarboxamide]
TBK1
  IC50: 4.8 nM
IKKε
  IC50: 9.5 nM

## N#Cc1cc(-c2cc(NC(=O)C3CC3)ncn2)ccc1O[C@H]1CCN(C(=O)[C@@H](O)CO)C[C@H]1F [Example 21, N-(6-(3-cyano-4-(((3R,4S)-1-((S)-2,3-dihydroxypropanoyl)-3-fluoropiperidin-4-yl)oxy)phenyl)pyrimidin-4-yl)cyclopropanecarboxamide]
TBK1
  IC50: 6.1 nM
IKKε
  IC50: 31.3 nM
